The values that follow come from patent US5594033A, “Secoaporphine compound on arrhythmia” (National Science Council, priority 1993, dated 1997).

Read-outs that look alike come from different tables or passages of the source.

Assay [1] concerns rat right atria, left atria and right ventricular strips. The experiment in a line: Contractile force and heart rate of isolated rat atria and right ventricle. The note with it: n = 6, mean ± S.E.M. On the procedure:
Method: After anesthetizing rats with pentobarbital, the heart was taken out, both the atrium and the right ventricle were separately placed in 10 ml of Tyrode solution. The spontaneous contraction of the right atrium was recorded. The contraction of the left atrium and the right ventricle was driven by stimulation at a frquency of twice per second.

In assay [2] the test system is calcium current (ICa) of rat ventricle cell. As to the kind of experiment: Calcium inward current (ICa), voltage clamp. In kind it is cell-based. An excerpt:
(§1) Ventricular cells isolated from rats and guinea pigs were placed in a chamber mounted on an inverted microscope, the effects of the test compounds on the action potential and the membrane current were studied by single cell current clamp and voltage clamp technique.

For another assay, the system named is myocyte action potential. As to the kind of experiment: Action potential of myocytes, single cell current clamp. In kind it is cell-based, rat.
Excerpt: as §1

Assay [3] deals with transient outward current (Ito) in rat ventricular cell. The experiment in a line: Transient outward current (Ito), voltage clamp. In kind it is cell-based. The note with it: for inhibition at 6 µM: Rattus norvegicus, read-out: Ito.
Excerpt: as §1

Assay [4] has as its system sodium current (INa), sodium channel. The experiment in a line: Sodium inward current (INa), voltage clamp. In kind it is cell-based, rat. The note with it: for V1/2 of potential-dependent steady state inactivation of sodium current: control -60.9 mV.
Excerpt: as §1

Assay [5] deals with delayed rectifier (IK) in guinea pig ventricular cell. The experiment in a line: Delayed rectifier potassium current (IK), voltage clamp. In kind it is cell-based. The note with it: Cavia porcellus, guinea pig ventricle cell, read-out: Degree of inhibition of IK.
Excerpt: as §1

Assay [6] deals with guinea pig left atrium treated with 0.6 μM ouabain. The experiment in a line: Ouabain induced arrhythmia in guinea pig left atria. The note with it: for minimal effective concentration: Cavia porcellus, read-out: Concentration that suppressed the ouabain-induced arrhythmia. On the procedure: The left atrium of guinea pigs was first treated with 0.6 μM of ouabain and the contractile force was monitored.

For the molecule `C=CCN(C)CCc1cc(O)c(OC)c2c1ccc1cc(O)c(OC)cc12` [compound 1, N-allylsecoboldine], the activity at 9 µM in assay [1] (left atria driven at 2 Hz, read-out: Contractile tension (%)) was 126 ± 6.3%; in assay [1] (right atria, spontaneous beating rate, read-out: H. R. (%)) it was 58.5 ± 3.4%; in assay [1] (right atria, spontaneous contraction, read-out: Contractile tension (%)), 164 ± 14%; in assay [1] (right ventricle strips driven at 2 Hz, read-out: Contractile tension (%)), 126 ± 7.3%. Further, the “Inhibitory effect on calcium current” value in assay [2] (3 μM) is on record as “did not show any inhibitory effect”. In addition, in assay [2] (12 μM, added in cumulative manner, rat ventricle cell, read-out: Calcium current (ICa), % of control), the activity at 12 µM is 71%. The inhibition at 12 µM in assay [2] (Rattus norvegicus, 0.1 h, 12 μM, non-treated cell retained 79% at 6 minutes, read-out: Actual degree of inhibition in calcium current, corrected for spontaneous rundown) is 9%. For the same molecule, the “Prolongation of the myocyte action potential” value in the assay on myocyte action potential (1 μM) was “prolongation of the myocyte action potential was seen”. For the same molecule, the “Duration of the action potential (prolonged to)” value in the assay on myocyte action potential (3 μM, driven at 0.2 Hz) is “five”. Moreover, in the assay with myocyte action potential (concentration not given, FIG. 4), the Action potential plateau entry is listed as “increased it”. Also, the “Shift of the potential-dependent inactivation curve of Ito” value in assay [3] (FIG. 6, 0.6 μM) was “to the right”. Also, the figures for the “V1/2 of potential-dependent steady state inactivation of sodium current” value in assay [4] (3 μM) and in assay [4] (9 μM) were -70.8 mV and -85.9 mV, respectively. For the same molecule, the “Sodium current, % of control” value in assay [4] (0.9 to 1.2 μM, guinea pig atrial cell or rat ventricle cell) was 25 % of control. In addition, the inhibition at 1 µM in assay [5] fell in the range of 20 to 30%. In addition, the inhibition at 3 µM in assay [5] (3 μM) lay in the range of 50 to 60%. Further, the inhibition at 9 µM in assay [5] (9 μM) lay within 70 to 80%.
For `C=CCN(C)CCc1cc(O)c(OC)c2c1ccc1cc(OC)c(OC)cc12` [compound 3, N-allylsecopredicentrine], the minimal effective concentration in assay [6] amounted to 30 µM.
On to `C=CCN(C)CCc1cc(OC)c(OC)c2c1ccc1cc(OC)c(OC)cc12` [compound 4, N-allylsecoglaucine], for which the “Effect on the myocyte action potential” value in the assay with myocyte action potential (compared with N-allylsecoboldine) is reported as “very similar effect on the myocyte action potential as N-allylsecoboldine”. For the same molecule, the “Arrhythmia induced by Ouabain: effect on rhythm” value in assay [6] (FIG. 12, ouabain 0.6 μM) is given as “conversion to normal paced rhythm”.
Turning to `COc1cc2c(ccc3c(CCN(C)Cc4ccccc4)cc(O)c(OC)c32)cc1O` [compound 5, N-benzylsecoboldine], in assay [3] (3 μM, rat ventricular cell), the “Inhibitory effect on transient outward current (Ito) versus quinidine” value is “more profound inhibitory effect”. Besides, the inhibition at 1 µM in assay [5] amounted to 30%.
For the molecule `COc1cc2ccc3c(CCN(C)C)cc(OC)c(OC)c3c2cc1OC` [compound 8, N-methylsecoglaucine], the inhibition at 6 µM in assay [3] stood at 70%.
Same read-out and setting: with `COc1cc2ccc3c(CCN(C)C)cc(O)c(OC)c3c2cc1OC` [compound 9, N-methylsecopredicentrine] the figure was 60%; with `COc1cc2c(ccc3c(CCN(C)C#N)cc(O)c(OC)c32)cc1O` [compound 26, N-cyanosecoboldine], 80%.
Regarding `CCN(CC)CC(=O)Nc1c(C)cccc1C` [lidocaine, reference compound], in assay [6] (guinea pig atrium, 0.6 μM ouabain), the minimal effective concentration is not below 30 µM.
`C=C[C@H]1C[N@@]2CC[C@H]1C[C@@H]2[C@@H](O)c1ccnc2ccc(OC)cc12` [quinidine, reference compound]: in the assay with myocyte action potential (30 MM), the Action potential plateau result is “decreased action potential plateau”. Further, in assay [3] (3 μM, rat ventricular cell, read-out: Reduction of Ito), the inhibition at 3 µM is approximately 60%.
